System: SYO-1 complex spheroid growth, percent test/control
Test: Anticancer human tumor SYO-1 cell line growth inhibition [Asc];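 note: compound exposure lasted 7 days after spheroids grew 3 days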;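 for viability, T/C: 100% = DMSO vehicle control viability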
Conditions: for IC50: curve of first compound; for viability, T/C: stronger effect = lower value
How it was run: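 Stromal components (HUVEC and hMSC) are co-assembled with the cancer cells into multicellular spheroids. Drugs are then added singly or paired, at concentrations falling by half-log increments from a clinically achievable maximum, capped at 10 microM without known Cmax.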

[1] = second compound 0.0316 µM, first compound 0.00316 µM
[2] = second compound 0.0316 µM, first compound 0.01 µM
[3] = second compound 0.0316 µM, first compound 0.0316 µM
[4] = second compound 0.0316 µM, first compound 0.1 µM
[5] = second compound 0.1 µM, first compound 0.00316 µM
[6] = second compound 0.1 µM, first compound 0.01 µM
[7] = second compound 0.1 µM, first compound 0.0316 µM
[8] = second compound 0.1 µM, first compound 0.1 µM
[9] = second compound 0.316 µM, first compound 0.00316 µM
[10] = second compound 0.316 µM, first compound 0.01 µM
[11] = second compound 0.316 µM, first compound 0.0316 µM
[12] = second compound 0.316 µM, first compound 0.1 µM
[13] = second compound 1 µM, first compound 0.00316 µM
[14] = second compound 1 µM, first compound 0.01 µM
[15] = second compound 1 µM, first compound 0.0316 µM
[16] = second compound 1 µM, first compound 0.1 µM
[17] = second compound 3.16 µM, first compound 0.00316 µM
[18] = second compound 3.16 µM, first compound 0.01 µM
[19] = second compound 3.16 µM, first compound 0.0316 µM
[20] = second compound 3.16 µM, first compound 0.1 µM
[21] = second compound 10 µM, first compound 0.00316 µM
[22] = second compound 10 µM, first compound 0.01 µM
[23] = second compound 10 µM, first compound 0.0316 µM
[24] = second compound 10 µM, first compound 0.1 µM
[25] = second compound 0.0316 µM, first compound 0.316 µM
[26] = second compound 0.0316 µM, first compound 1 µM
[27] = second compound 0.1 µM, first compound 0.316 µM
[28] = second compound 0.1 µM, first compound 1 µM
[29] = second compound 0.316 µM, first compound 0.316 µM
[30] = second compound 0.316 µM, first compound 1 µM
[31] = second compound 1 µM, first compound 0.316 µM
[32] = second compound 1 µM, first compound 1 µM
[33] = second compound 3.16 µM, first compound 0.316 µM
[34] = second compound 3.16 µM, first compound 1 µM
[35] = second compound 10 µM, first compound 0.316 µM
[36] = second compound 10 µM, first compound 1 µM

## Cn1ncnc1[C@H]1c2n[nH]c(=O)c3cc(F)cc(c23)N[C@@H]1c1ccc(F)cc1 + Cc1c(S(C)(=O)=O)c(-c2cc(F)cc(N3CCN(c4ccc(NS(=O)(=O)c5ccc(NC(CCN6CCC(C(=O)OCCCP(=O)(O)O)CC6)CSc6ccccc6)c(S(=O)(=O)C(F)(F)F)c5)cc4)CC3)c2)c(-c2ccc(Cl)cc2)n1C(C)C
Second compound 0.0316 µM
  IC50: 19.3 nM
Second compound 0.1 µM
  IC50: 18.1 nM
Second compound 0.316 µM
  IC50: 15.3 nM
Second compound 1 µM
  IC50: 10.2 nM
Second compound 3.16 µM
  IC50: 5.98 nM
Second compound 10 µM
  IC50: 4.59 nM
Second compound 0.0316 µM, first compound 0.000316 µM
  viability, T/C: 108%
Second compound 0.0316 µM, first compound 0.001 µM
  viability, T/C: 96.5%
[1]
  viability, T/C: 99.6%
[2]
  viability, T/C: 80%
[3]
  viability, T/C: 27.4%
[4]
  viability, T/C: 6.64%
Second compound 0.1 µM, first compound 0.000316 µM
  viability, T/C: 97.6%
Second compound 0.1 µM, first compound 0.001 µM
  viability, T/C: 99%
[5]
  viability, T/C: 87.1%
[6]
  viability, T/C: 85.2%
[7]
  viability, T/C: 17.2%
[8]
  viability, T/C: 4.83%
Second compound 0.316 µM, first compound 0.000316 µM
  viability, T/C: 97.1%
Second compound 0.316 µM, first compound 0.001 µM
  viability, T/C: 95.4%
[9]
  viability, T/C: 94.5%
[10]
  viability, T/C: 73.6%
[11]
  viability, T/C: 9.3%
[12]
  viability, T/C: 3.79%
Second compound 1 µM, first compound 0.000316 µM
  viability, T/C: 93.4%
Second compound 1 µM, first compound 0.001 µM
  viability, T/C: 98.6%
[13]
  viability, T/C: 88.6%
[14]
  viability, T/C: 51.5%
[15]
  viability, T/C: 7.18%
[16]
  viability, T/C: 3.35%
Second compound 3.16 µM, first compound 0.000316 µM
  viability, T/C: 97.2%
Second compound 3.16 µM, first compound 0.001 µM
  viability, T/C: 89.5%
[17]
  viability, T/C: 80.1%
[18]
  viability, T/C: 26%
[19]
  viability, T/C: 4.8%
[20]
  viability, T/C: 2.64%
Second compound 10 µM, first compound 0.000316 µM
  viability, T/C: 85.9%
Second compound 10 µM, first compound 0.001 µM
  viability, T/C: 90%
[21]
  viability, T/C: 65.6%
[22]
  viability, T/C: 16.4%
[23]
  viability, T/C: 3.2%
[24]
  viability, T/C: 2.36%

## O=C(c1cc(Cc2n[nH]c(=O)c3ccccc23)ccc1F)N1CCN(C(=O)C2CC2)CC1 + Cc1c(S(C)(=O)=O)c(-c2cc(F)cc(N3CCN(c4ccc(NS(=O)(=O)c5ccc(NC(CCN6CCC(C(=O)OCCCP(=O)(O)O)CC6)CSc6ccccc6)c(S(=O)(=O)C(F)(F)F)c5)cc4)CC3)c2)c(-c2ccc(Cl)cc2)n1C(C)C
Second compound 0.0316 µM
  IC50: 1840 nM
Second compound 0.1 µM
  IC50: 1850 nM
Second compound 0.316 µM
  IC50: 1630 nM
Second compound 1 µM
  IC50: 1640 nM
Second compound 3.16 µM
  IC50: 1170 nM
Second compound 10 µM
  IC50: 613 nM
[3]
  viability, T/C: 106%
[4]
  viability, T/C: 90.1%
[25]
  viability, T/C: 96.5%
[26]
  viability, T/C: 85.1%
Second compound 0.0316 µM, first compound 3.16 µM
  viability, T/C: 18.6%
Second compound 0.0316 µM, first compound 10 µM
  viability, T/C: 4.21%
[7]
  viability, T/C: 105%
[8]
  viability, T/C: 93.3%
[27]
  viability, T/C: 89.7%
[28]
  viability, T/C: 92.5%
Second compound 0.1 µM, first compound 3.16 µM
  viability, T/C: 13.1%
Second compound 0.1 µM, first compound 10 µM
  viability, T/C: 3.38%
[11]
  viability, T/C: 95.6%
[12]
  viability, T/C: 92%
[29]
  viability, T/C: 95.7%
[30]
  viability, T/C: 82.2%
Second compound 0.316 µM, first compound 3.16 µM
  viability, T/C: 6.13%
Second compound 0.316 µM, first compound 10 µM
  viability, T/C: 2.3%
[15]
  viability, T/C: 89.7%
[16]
  viability, T/C: 108%
[31]
  viability, T/C: 87.2%
[32]
  viability, T/C: 84.9%
Second compound 1 µM, first compound 3.16 µM
  viability, T/C: 4.13%
Second compound 1 µM, first compound 10 µM
  viability, T/C: 1.66%
[19]
  viability, T/C: 93.4%
[20]
  viability, T/C: 88.7%
[33]
  viability, T/C: 83.9%
[34]
  viability, T/C: 57.7%
Second compound 3.16 µM, first compound 3.16 µM
  viability, T/C: 2.51%
Second compound 3.16 µM, first compound 10 µM
  viability, T/C: 1.72%
[23]
  viability, T/C: 83.7%
[24]
  viability, T/C: 81.1%
[35]
  viability, T/C: 69.8%
[36]
  viability, T/C: 35.9%
Second compound 10 µM, first compound 3.16 µM
  viability, T/C: 2.29%
Second compound 10 µM, first compound 10 µM
  viability, T/C: 2.09%

## O=C(c1ccc(F)c(F)c1Nc1ccc(I)cc1F)N1CC(O)([C@@H]2CCCCN2)C1 + Cc1c(S(C)(=O)=O)c(-c2cc(F)cc(N3CCN(c4ccc(NS(=O)(=O)c5ccc(NC(CCN6CCC(C(=O)OCCCP(=O)(O)O)CC6)CSc6ccccc6)c(S(=O)(=O)C(F)(F)F)c5)cc4)CC3)c2)c(-c2ccc(Cl)cc2)n1C(C)C
Second compound 0.0316 µM
  IC50: > 1000 nM
Second compound 0.1 µM
  IC50: > 1000 nM
Second compound 0.316 µM
  IC50: > 1000 nM
Second compound 1 µM
  IC50: > 1000 nM
Second compound 3.16 µM
  IC50: > 1000 nM
Second compound 10 µM
  IC50: > 1000 nM
[1]
  viability, T/C: 98.2%
[2]
  viability, T/C: 102%
[3]
  viability, T/C: 106%
[4]
  viability, T/C: 99.6%
[25]
  viability, T/C: 110%
[26]
  viability, T/C: 113%
[5]
  viability, T/C: 95.3%
[6]
  viability, T/C: 101%
[7]
  viability, T/C: 97.1%
[8]
  viability, T/C: 102%
[27]
  viability, T/C: 103%
[28]
  viability, T/C: 99.8%
[9]
  viability, T/C: 95.7%
[10]
  viability, T/C: 93.6%
[11]
  viability, T/C: 94.2%
[12]
  viability, T/C: 106%
[29]
  viability, T/C: 99%
[30]
  viability, T/C: 104%
[13]
  viability, T/C: 91.6%
[14]
  viability, T/C: 89.5%
[15]
  viability, T/C: 100%
[16]
  viability, T/C: 98.9%
[31]
  viability, T/C: 102%
[32]
  viability, T/C: 97.1%
[17]
  viability, T/C: 91.9%
[18]
  viability, T/C: 92.1%
[19]
  viability, T/C: 87.2%
[20]
  viability, T/C: 99.8%
[33]
  viability, T/C: 101%
[34]
  viability, T/C: 93.4%
[21]
  viability, T/C: 85.8%
[22]
  viability, T/C: 81.3%
[23]
  viability, T/C: 92.2%
[24]
  viability, T/C: 85.6%
[35]
  viability, T/C: 71.8%
[36]
  viability, T/C: 67.6%
